Test results reported in ChEMBL document CHEMBL1250451, “Mechanistic insights into a Ca2+-dependent family of alpha-mannosidases in a human gut symbiont” (Nat Chem Biol, 2010).
Blank lines part the entries; values can stand above or below the compound they belong to.

What was measured:
Format in all cases: protein assay
[1] = target: T1, Alpha-1,2-mannosidase (BT_3965) (Bacteroides thetaiotaomicron) (UniProt Q8A0Q6); experiment: Activity of Bacteroides thetaiotaomicron GH92 alpha-mannosidase GH92 alpha-mannosidase 3965 assessed as mannose release at 1 mM after 16 hrs by HPLC relative to untreated control after 16 hrs by HPLC
T1 sequence (whole entry): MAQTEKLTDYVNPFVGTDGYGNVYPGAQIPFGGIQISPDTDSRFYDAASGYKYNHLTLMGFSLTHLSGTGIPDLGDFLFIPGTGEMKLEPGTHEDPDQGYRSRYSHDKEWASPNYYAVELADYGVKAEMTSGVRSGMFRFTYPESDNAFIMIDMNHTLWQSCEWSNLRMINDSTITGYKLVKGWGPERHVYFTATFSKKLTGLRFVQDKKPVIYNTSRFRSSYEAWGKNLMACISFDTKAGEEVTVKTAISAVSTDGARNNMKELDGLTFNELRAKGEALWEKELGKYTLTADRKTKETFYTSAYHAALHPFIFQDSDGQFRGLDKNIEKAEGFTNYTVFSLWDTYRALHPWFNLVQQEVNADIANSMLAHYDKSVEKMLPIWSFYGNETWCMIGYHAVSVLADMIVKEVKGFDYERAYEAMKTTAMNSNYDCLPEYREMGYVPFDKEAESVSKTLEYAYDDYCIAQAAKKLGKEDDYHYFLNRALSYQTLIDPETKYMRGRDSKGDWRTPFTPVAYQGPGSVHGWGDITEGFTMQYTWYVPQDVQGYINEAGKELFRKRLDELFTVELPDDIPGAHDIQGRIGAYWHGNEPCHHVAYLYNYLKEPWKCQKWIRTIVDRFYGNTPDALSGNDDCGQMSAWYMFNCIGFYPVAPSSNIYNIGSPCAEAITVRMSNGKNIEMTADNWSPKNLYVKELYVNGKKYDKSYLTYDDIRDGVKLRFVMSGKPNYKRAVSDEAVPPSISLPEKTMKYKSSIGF

[2] = target: T2, Alpha-1,2-mannosidase (BT_3990) (Bacteroides thetaiotaomicron) (UniProt Q8A0N1); experiment: Activity of Bacteroides thetaiotaomicron GH92 alpha-mannosidase 3990 assessed as recovery of enzyme activity at 1 mM in presence of 7 mM Mn(2+) ions and in presence of 5 mM EGTA in 100 mM pH 7 MOPS buffer relative to enzyme activity in presence of calcium
T2 sequence (whole entry): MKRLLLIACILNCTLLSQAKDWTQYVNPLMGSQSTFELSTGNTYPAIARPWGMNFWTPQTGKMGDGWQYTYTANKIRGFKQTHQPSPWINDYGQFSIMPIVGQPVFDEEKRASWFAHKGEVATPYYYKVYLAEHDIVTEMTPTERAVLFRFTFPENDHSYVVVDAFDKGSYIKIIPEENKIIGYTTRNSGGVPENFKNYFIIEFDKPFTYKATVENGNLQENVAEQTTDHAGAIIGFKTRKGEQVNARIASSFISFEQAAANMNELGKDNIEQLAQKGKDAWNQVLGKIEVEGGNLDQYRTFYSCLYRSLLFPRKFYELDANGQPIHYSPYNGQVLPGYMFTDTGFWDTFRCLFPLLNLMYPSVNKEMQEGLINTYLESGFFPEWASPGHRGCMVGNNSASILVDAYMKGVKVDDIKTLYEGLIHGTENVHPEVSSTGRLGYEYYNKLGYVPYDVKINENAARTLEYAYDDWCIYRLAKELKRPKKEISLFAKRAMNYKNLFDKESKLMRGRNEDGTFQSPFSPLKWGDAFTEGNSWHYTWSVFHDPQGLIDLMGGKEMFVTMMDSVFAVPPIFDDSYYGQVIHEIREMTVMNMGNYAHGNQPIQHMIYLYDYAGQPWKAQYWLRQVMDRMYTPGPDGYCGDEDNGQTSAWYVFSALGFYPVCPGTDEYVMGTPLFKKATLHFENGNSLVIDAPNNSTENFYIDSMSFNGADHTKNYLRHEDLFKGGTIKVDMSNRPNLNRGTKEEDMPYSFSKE

[3] = target: T2, Alpha-1,2-mannosidase (BT_3990) (Bacteroides thetaiotaomicron); experiment: Activity of Bacteroides thetaiotaomicron GH92 alpha-mannosidase 3990 assessed as recovery of enzyme activity at 1 mM in presence of 7 mM Ti(3+) ions and in presence of 5 mM EGTA in 100 mM pH 7 MOPS buffer relative to enzyme activity in presence of calcium
[4] = target: T2, Alpha-1,2-mannosidase (BT_3990) (Bacteroides thetaiotaomicron); experiment: Activity of Bacteroides thetaiotaomicron GH92 alpha-mannosidase 3990 assessed as recovery of enzyme activity at 1 mM in presence of 7 mM Ba(2+) ions and in presence of 5 mM EGTA in 100 mM pH 7 MOPS buffer relative to enzyme activity in presence of calcium
[5] = target: T2, Alpha-1,2-mannosidase (BT_3990) (Bacteroides thetaiotaomicron); experiment: Activity of Bacteroides thetaiotaomicron GH92 alpha-mannosidase 3990 assessed as recovery of enzyme activity at 1 mM in absence of metal and in presence of 5 mM EDTA in 100 mM pH 7 MOPS buffer relative to enzyme activity in presence of calcium
[6] = target: T2, Alpha-1,2-mannosidase (BT_3990) (Bacteroides thetaiotaomicron); experiment: Activity of Bacteroides thetaiotaomicron GH92 alpha-mannosidase 3990 assessed as recovery of enzyme activity at 1 mM in presence of 7 mM Sc(3+) ions and in presence of 5 mM EDTA in 100 mM pH 7 MOPS buffer relative to enzyme activity in presence of calcium
[7] = target: T2, Alpha-1,2-mannosidase (BT_3990) (Bacteroides thetaiotaomicron); experiment: Activity of Bacteroides thetaiotaomicron GH92 alpha-mannosidase 3990 assessed as recovery of enzyme activity at 1 mM in presence of 7 mM Ca(2+) ions and in presence of 5 mM EDTA in 100 mM pH 7 MOPS buffer relative to enzyme activity in presence of calcium
[8] = target: T2, Alpha-1,2-mannosidase (BT_3990) (Bacteroides thetaiotaomicron); experiment: Activity of Bacteroides thetaiotaomicron GH92 alpha-mannosidase 3990 assessed as recovery of enzyme activity at 1 mM in presence of 7 mM Mg(2+) ions and in presence of 5 mM EGTA in 100 mM pH 7 MOPS buffer relative to enzyme activity in presence of calcium

Activity [1]: 0.64%
Structure (SMILES): OC[C@H]1O[C@H](OC[C@H]2O[C@H](O)[C@@H](O)[C@@H](O)[C@@H]2O)[C@@H](O)[C@@H](O)[C@@H]1O

Activity [2]: 6%
Activity [3]: 0%
Activity [4]: 0%
Activity [5]: 0%
Activity [6]: 0%
Activity [7]: 100%
Activity [8]: 0%
Structure (SMILES): O=[N+]([O-])c1ccc(O[C@H]2O[C@H](CO)[C@@H](O)[C@H](O)[C@@H]2O)cc1

Activity [1]: 0.27%
Structure (SMILES): OC[C@H]1O[C@H](O[C@H]2[C@@H](O)[C@H](O)[C@@H](CO)O[C@@H]2O)[C@@H](O)[C@@H](O)[C@@H]1O

Activity [1]: 0.09%
Structure (SMILES): OC[C@H]1O[C@H](O[C@@H]2[C@H](O)[C@@H](O)O[C@H](CO)[C@H]2O)[C@@H](O)[C@@H](O)[C@@H]1O

Activity [1]: 100%
Structure (SMILES): OC[C@H]1O[C@H](O[C@H]2[C@H](O)[C@H](O)[C@@H](O)O[C@@H]2CO)[C@@H](O)[C@@H](O)[C@@H]1O
